What was measured:
Dihydrofolate reductase = target: T1, Dihydrofolate reductase (Homo sapiens, UniProt P00374); assay: Not found
T1 sequence (P00374 whole entry): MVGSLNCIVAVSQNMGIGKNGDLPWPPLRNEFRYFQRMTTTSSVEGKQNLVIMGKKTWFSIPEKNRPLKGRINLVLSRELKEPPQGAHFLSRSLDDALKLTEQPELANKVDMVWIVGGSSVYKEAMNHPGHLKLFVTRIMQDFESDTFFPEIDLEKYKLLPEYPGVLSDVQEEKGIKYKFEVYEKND

[1] = target: Bifunctional dihydrofolate reductase-thymidylate synthase (Leishmania major, UniProt P07382); assay: Not found
Chain of Bifunctional dihydrofolate reductase-thymidylate synthase (P07382 whole entry): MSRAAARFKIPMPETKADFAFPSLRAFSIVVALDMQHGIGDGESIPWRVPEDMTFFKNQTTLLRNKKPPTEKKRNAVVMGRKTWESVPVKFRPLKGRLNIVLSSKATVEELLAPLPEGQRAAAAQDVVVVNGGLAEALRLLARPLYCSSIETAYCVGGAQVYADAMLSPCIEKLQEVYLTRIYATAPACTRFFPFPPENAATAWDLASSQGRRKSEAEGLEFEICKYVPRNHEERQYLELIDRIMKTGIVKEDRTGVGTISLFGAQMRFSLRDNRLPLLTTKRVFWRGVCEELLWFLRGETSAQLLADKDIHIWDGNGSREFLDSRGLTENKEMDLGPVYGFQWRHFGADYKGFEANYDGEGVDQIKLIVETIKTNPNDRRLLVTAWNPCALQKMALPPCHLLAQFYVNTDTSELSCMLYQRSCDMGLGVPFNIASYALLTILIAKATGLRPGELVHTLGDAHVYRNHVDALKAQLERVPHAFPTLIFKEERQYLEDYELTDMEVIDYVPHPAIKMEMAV

SMILES: Nc1ncc(N2CCN(c3ccccc3-c3ccccc3)CC2)c(N)n1 [US11530198, Example 12]
- IC50 (Dihydrofolate reductase): 0.214 µM
- IC50 [1]: 0.00741 µM

Reference: BindingDB's records for patent US11530198 (Vyera Pharmaceuticals, 2022)
